Article PMC11173382, “In Vitro Investigations into the Potential Drug Interactions of Pseudoginsenoside DQ Mediated by Cytochrome P450 and Human Drug Transporters” (Molecules, 2024)

Biological target: T1, CYP1A2 (Homo sapiens, UniProt P05177)
T1 construct: tissue Corning 452117; host or cells: human liver microsomes
T1 sequence (P05177 1-516): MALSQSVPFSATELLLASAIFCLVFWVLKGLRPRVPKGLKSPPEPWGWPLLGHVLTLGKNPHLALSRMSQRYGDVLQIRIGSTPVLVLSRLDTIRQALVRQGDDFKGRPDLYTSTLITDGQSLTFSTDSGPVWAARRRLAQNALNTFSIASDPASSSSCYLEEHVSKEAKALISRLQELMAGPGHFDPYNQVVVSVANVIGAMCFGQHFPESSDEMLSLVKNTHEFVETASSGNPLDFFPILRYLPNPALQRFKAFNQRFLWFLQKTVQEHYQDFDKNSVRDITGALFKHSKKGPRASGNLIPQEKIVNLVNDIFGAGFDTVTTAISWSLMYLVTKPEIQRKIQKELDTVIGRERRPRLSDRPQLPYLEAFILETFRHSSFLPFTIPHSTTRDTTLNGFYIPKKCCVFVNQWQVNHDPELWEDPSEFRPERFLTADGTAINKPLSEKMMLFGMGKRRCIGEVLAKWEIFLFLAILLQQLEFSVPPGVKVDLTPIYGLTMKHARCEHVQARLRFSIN
Assay: CYP450 inhibition assay in human liver microsomes, CYP1A2
Type: in vitro ADME
Experimental: To evaluate the reliability and reproducibility of the CYP450 inhibition assay, we measured the inhibitory effects of selected positive control inhibitors of each CYP450 enzyme in human liver microsomes (HLM, Table 1, Figure 2). The potency of inhibition was estimated by observing the alteration in concentration of metabolites of CYP450 substrates (Table 1).
Reagents preparation. […] The stock solution of PDQ (10 mM) was prepared with methanol and further diluted to the range of 3 µM to 3 mM with methanol to ensure that the solvent of different PDQ samples contained the same amount (1%) of methanol.
The stock solutions of the positive control inhibitors and the probe substrates of CYP450 enzymes were prepared in methanol.
CYP450 inhibition assay. […] The assay was conducted in polypropylene 96-well plates (2.2 mL/well, Apricot Designs Inc., Covina, CA, USA).
The total volume of the reaction is 200 μL. The HLM mixtures (102 μL) containing individual probe substrates (Table 3), KH2PO4 buffer (100 mM, pH 7.4), and either PDQ or the positive control inhibitors (Table 3) were incubated for 10 min at 37 °C in a shaking incubator. Reactions were initiated by adding 98 μL NADPH (final concentration is 1.3 mM NADPH, 3 mM MgCl2 in 100 mM KH2PO4 buffer). The HLM reaction mixtures were shaken at 37 °C for various times (Table 4). The reaction time of CYP3A4 (midazolam), CYP2C19 and CYP2D6 were 3, 20 and 20 min, respectively, while the reactions of other CYP enzymes were terminated after 10 min. The reactions were quenched by adding 200 μL acetonitrile containing 3% formic acid and specific internal standards (Table 4). After shaking at 1000 rpm for 10 min, the reaction mixtures were centrifuged at 4000 rpm for 20 min. Supernatants were diluted with ultrapure water (Table 4) and shaken for 10 min at 1000 rpm. […] The substrates and analytes were analyzed by LC-MS/MS (API4000, Applied Biosystems, Singapore; HPLC, Shimadzu, Japan). […]
Data analysis. […] The IC50 was determined by fitting the dependence of the relative remaining activity (y = Vi/V0) to the following three-parameter equation (Equation (1)). […]

CC(C)(O)[C@@H]1CC[C@@](C)([C@H]2CC[C@]3(C)[C@@H]2[C@H](O)C[C@@H]2[C@@]4(C)CC[C@H](O)C(C)(C)[C@@H]4CC[C@]23C)O1 [PDQ, (20S,24S)-dammar-20,24-epoxy-3β, 12β, 25-triol]
IC50 (HLM 0.1 mg/mL, probe phenacetin 75 µM, 10 min): > 100 µM
effect on CYP1A2-catalyzed de-ethylation (PDQ within the range of 0.03 to 30.0 μM, HLM): activated
percentage mean control activity of CYP1A2 (highest tested dose of PDQ (100 μM), HLM): 100.8%
